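Each compound was tested at five concentrations against cells in 96-well plates for 48 hours. GI50 marks 50% less growth.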 Calls of active or inactive are those of the source. No stated cut-off is given here; in the data, active = GI50 up to about 1.1 µM and inactive = higher.
Legend:
Assay in all cases: growth of human tumour cells (NCI), 48 h
CAKI-1 = system: CAKI-1
COLO 205 = system: COLO 205
EKVX = system: EKVX
HCT-15 = system: HCT-15
HOP-62 = system: HOP-62
HT-29 = system: HT-29
K562 = system: K562
KM12 = system: KM12
Malme-3M = system: Malme-3M
RXF 393 = system: RXF 393
SK-MEL-5 = system: SK-MEL-5
SK-OV-3 = system: SK-OV-3
SNB-75 = system: SNB-75
SR = system: SR
UACC-62 = system: UACC-62
UO-31 = system: UO-31

Row | Structure (SMILES) | GI50 (CAKI-1) | GI50 (COLO 205) | GI50 (EKVX) | GI50 (HCT-15) | GI50 (HOP-62) | GI50 (HT-29) | GI50 (K562) | GI50 (KM12) | GI50 (Malme-3M) | GI50 (RXF 393) | GI50 (SK-MEL-5) | GI50 (SK-OV-3) | GI50 (SNB-75) | GI50 (SR) | GI50 (UACC-62) | GI50 (UO-31)
1 | Nc1c2ccccc2nc2nccnc12 | > 100 µM (inactive) | > 100 µM (inactive) | 38.4 µM (inactive) | > 100 µM | > 100 µM (inactive) | > 100 µM (inactive) | > 100 µM (inactive) | > 100 µM (inactive) | > 100 µM (inactive) | > 100 µM (inactive) | > 100 µM (inactive) | > 100 µM (inactive) | > 100 µM (inactive) | > 100 µM (inactive) | > 100 µM (inactive) | > 100 µM (inactive)
2 | Clc1cc(Cl)c2c(Cl)cc(Cl)c3c2c1N=S=N3 | > 100 µM (inactive) | > 100 µM (inactive) | > 100 µM (inactive) | 67.1 µM |  | > 100 µM (inactive) | > 100 µM (inactive) | > 100 µM (inactive) | > 100 µM (inactive) | > 100 µM (inactive) | > 100 µM (inactive) | > 100 µM (inactive) | > 100 µM (inactive) |  | 62.5 µM (inactive) | > 100 µM (inactive)
3 | Cc1cc2c(cc1C)[n+]([O-])c(C(=O)C/C(=N/NC(=O)c1ccccc1O)C(=O)Nc1ccccc1C(C)C)c(C)[n+]2[O-] | > 100 µM (inactive) | > 100 µM (inactive) | > 100 µM (inactive) | > 100 µM | > 100 µM (inactive) | > 100 µM (inactive) | 31.6 µM (inactive) | > 100 µM (inactive) | > 100 µM (inactive) | > 100 µM (inactive) | > 100 µM (inactive) | > 100 µM (inactive) | 88.5 µM (inactive) |  | 68.1 µM (inactive) | 
4 | Cc1ccccc1C1OC(=O)c2ccc3ccccc3c21 (stereo not drawn) | 6.21 µM (inactive) | 1.37 µM (inactive) | 7.4 µM (inactive) | 2.93 µM | 0.442 µM (active) | 4.22 µM (inactive) | 3.07 µM (inactive) | 5.6 µM (inactive) | 5.56 µM (inactive) | 2.59 µM (inactive) | 3.53 µM (inactive) | 2.52 µM (inactive) | 3.55 µM (inactive) | 0.769 µM (active) | 2.94 µM (inactive) | 2.77 µM (inactive)
5 | CC1=C(C)CC2(CCCCC2=O)[S+]([O-])C1 (stereo not drawn) |  | > 100 µM (inactive) | > 100 µM (inactive) | > 100 µM | > 100 µM (inactive) | > 100 µM (inactive) | > 100 µM (inactive) | > 100 µM (inactive) | > 100 µM (inactive) | > 100 µM (inactive) | > 100 µM (inactive) | > 100 µM (inactive) | > 100 µM (inactive) | > 100 µM (inactive) | > 100 µM (inactive) | > 100 µM (inactive)
6 | COc1cc(/C=C(\C#N)c2ccccc2)cc(OC)c1 | 51.1 µM (inactive) | 57.4 µM (inactive) | 77.1 µM (inactive) | 24 µM | 74.1 µM (inactive) | 32.4 µM (inactive) | 15.2 µM (inactive) | 34.8 µM (inactive) | > 100 µM (inactive) |  | 41.1 µM (inactive) | 48.2 µM (inactive) |  | 36.1 µM (inactive) | 32.4 µM (inactive) | 29.6 µM (inactive)
7 | C[Si](C)(C)/C(Br)=C\CCN1C(=O)CCC1O (stereo not drawn) |  | > 100 µM (inactive) | > 100 µM (inactive) | > 100 µM |  | > 100 µM (inactive) | > 100 µM (inactive) | > 100 µM (inactive) | > 100 µM (inactive) | > 100 µM (inactive) |  | > 100 µM (inactive) | 34.2 µM (inactive) |  | > 100 µM (inactive) | > 100 µM (inactive)
8 | CCOC(=O)N1C2C=C(C)C(C3C(C)C(=O)N31)N(C(=O)c1ccccc1)O2 (stereo not drawn) | > 100 µM (inactive) | > 100 µM (inactive) | > 100 µM (inactive) | > 100 µM | > 100 µM (inactive) | > 100 µM (inactive) | > 100 µM (inactive) | > 100 µM (inactive) | > 100 µM (inactive) | > 100 µM (inactive) | > 100 µM (inactive) | > 100 µM (inactive) | > 100 µM (inactive) | > 100 µM (inactive) | > 100 µM (inactive) | > 100 µM (inactive)
9 | C/C(CC(=O)Nc1ccc(NC(=O)/C(C)=N/NS(=O)(=O)c2ccc(C)cc2)cc1)=N\NS(=O)(=O)c1ccc(C)cc1 | > 100 µM (inactive) | > 100 µM (inactive) | > 100 µM (inactive) | > 100 µM | > 100 µM (inactive) | > 100 µM (inactive) | > 100 µM (inactive) | > 100 µM (inactive) | > 100 µM (inactive) | > 100 µM (inactive) | > 100 µM (inactive) | > 100 µM (inactive) | > 100 µM (inactive) |  | > 100 µM (inactive) | > 100 µM (inactive)
10 | Brc1cc2c(cc1Br)CN(c1ccccc1)C2 |  | > 100 µM (inactive) | > 100 µM (inactive) | 53.8 µM | > 100 µM (inactive) | > 100 µM (inactive) | 80 µM (inactive) | > 100 µM (inactive) | > 100 µM (inactive) | 99.8 µM (inactive) | > 100 µM (inactive) | > 100 µM (inactive) | > 100 µM (inactive) |  | > 100 µM (inactive) | > 100 µM (inactive)
11 | CCc1cc2c(O)c(c1)Cc1cc(CC)cc(c1O)Cc1cc(CC)cc(c1O)Cc1cc(CC)cc(c1O)Cc1cc(CC)cc(c1O)Cc1cc(CC)cc(c1O)Cc1cc(CC)cc(c1O)C2 |  | > 100 µM (inactive) | > 100 µM (inactive) | > 100 µM | > 100 µM (inactive) | > 100 µM (inactive) | > 10 µM (inactive) | > 100 µM (inactive) | > 100 µM (inactive) | 16.9 µM (inactive) | > 100 µM (inactive) |  | 28.6 µM (inactive) |  | > 100 µM (inactive) | > 100 µM (inactive)
12 | NC(CNc1ccc(O)cc1)C(=O)O (stereo not drawn) | 81.8 µM (inactive) | > 100 µM (inactive) | > 100 µM (inactive) | > 100 µM | > 100 µM (inactive) | > 100 µM (inactive) | 89.1 µM (inactive) | > 100 µM (inactive) | > 100 µM (inactive) | > 100 µM (inactive) | > 100 µM (inactive) | > 100 µM (inactive) | > 100 µM (inactive) | 87.9 µM (inactive) | 20.9 µM (inactive) | > 100 µM (inactive)
13 | N=C(N)NS(=O)(=O)c1ccc(NC(=O)c2cccc3c(Nc4ccc(S(N)(=O)=O)cc4)c4ccccc4nc23)cc1 | > 100 µM (inactive) | > 100 µM (inactive) | > 100 µM (inactive) | > 100 µM | > 100 µM (inactive) | > 100 µM (inactive) | > 100 µM (inactive) | > 100 µM (inactive) | > 100 µM (inactive) | > 100 µM (inactive) | > 100 µM (inactive) | > 100 µM (inactive) | > 100 µM (inactive) |  | > 100 µM (inactive) | > 100 µM (inactive)
14 | O=S1OC(c2ccccc2)(c2ccccc2)C(c2ccccc2)(c2ccccc2)O1 |  | > 100 µM (inactive) | 48.3 µM (inactive) | > 30.3 µM | > 100 µM (inactive) | 7.36 µM (inactive) | 25.1 µM (inactive) | 5.43 µM (inactive) | > 100 µM (inactive) | > 72.1 µM (inactive) | 15.4 µM (inactive) | > 100 µM (inactive) | > 56.4 µM (inactive) | 8.93 µM (inactive) | > 100 µM (inactive) | > 29.7 µM (inactive)
15 | CCc1nc2c([nH]1)C(=O)c1ccccc1C2=O | 47.8 µM (inactive) |  | 94.4 µM (inactive) | 51.3 µM | > 100 µM (inactive) | 43.2 µM (inactive) | 55 µM (inactive) | 59.7 µM (inactive) | 24.8 µM (inactive) | > 100 µM (inactive) |  | > 100 µM (inactive) | > 100 µM (inactive) | 38.5 µM (inactive) | 29.9 µM (inactive) | 80.9 µM (inactive)
16 | Cc1ccc(Nc2cccc3c2C(=O)c2cccc(Nc4ccc(C)cc4S(=O)(=O)O)c2C3=O)c(S(=O)(=O)O)c1 | > 100 µM (inactive) | > 100 µM (inactive) | > 100 µM (inactive) | > 100 µM | > 100 µM (inactive) |  | > 100 µM (inactive) | > 100 µM (inactive) | > 100 µM (inactive) | > 100 µM (inactive) | > 100 µM (inactive) | > 100 µM (inactive) | > 100 µM (inactive) | > 100 µM (inactive) | > 100 µM (inactive) | > 100 µM (inactive)
17 | c1ccc(C2OC3(CCC[C@H]4C[C@H]43)O[C@H]2c2ccccc2)cc1 (stereo partly drawn) | 29.6 µM (inactive) | 24.7 µM (inactive) | 32.8 µM (inactive) | 33.8 µM | 56.1 µM (inactive) | 31.3 µM (inactive) | 22.7 µM (inactive) | 29 µM (inactive) | 34.5 µM (inactive) | 38.5 µM (inactive) | 25.3 µM (inactive) | > 100 µM (inactive) | 26.5 µM (inactive) | 27.2 µM (inactive) | 57.3 µM (inactive) | 38.7 µM (inactive)
18 | CC1C=CC(O)[C@]2(CO)CC3(CCC12)OCCO3 (stereo partly drawn) | > 100 µM (inactive) |  | > 100 µM (inactive) |  | > 100 µM (inactive) | > 100 µM (inactive) | > 100 µM (inactive) | > 100 µM (inactive) | > 100 µM (inactive) | > 100 µM (inactive) | > 100 µM (inactive) | > 100 µM (inactive) | > 100 µM (inactive) | > 100 µM (inactive) | > 100 µM (inactive) | > 100 µM (inactive)
19 | O=C(CC(=O)c1ccccc1)c1ccccc1.O=C(CC(=O)c1ccccc1)c1ccccc1.O=C(CC(=O)c1ccccc1)c1ccccc1.[SiH4] | 4.92 µM (inactive) | 2.21 µM (inactive) | 6.65 µM (inactive) |  | 7.59 µM (inactive) | 4.41 µM (inactive) | 3.88 µM (inactive) | 3.48 µM (inactive) | 11.8 µM (inactive) |  | 4.66 µM (inactive) | 5.79 µM (inactive) | 10.4 µM (inactive) | 3.57 µM (inactive) | 3.89 µM (inactive) | 4.56 µM (inactive)

Source: ChEMBL document CHEMBL1201862, “PubChem BioAssay data set” (2004)
